Experimental findings from article doi:10.1101/2022.11.21.517375v1, “Fragment-Based Hit Discovery via Unsupervised Learning of Fragment-Protein Complexes” (biorxiv, 2022) are described below.

Like-named read-outs stand apart in the source and are kept apart here.

Assay [1] concerns the target T1, SARS-CoV-2 nsp3-Mac1 (HTRF assay) (Severe acute respiratory syndrome coronavirus 2, UniProt P0DTD1).
T1 construct: gene rep
The assay can be described thus: HTRF displacement of ADP-ribose-conjugated biotin peptide. Format: binding. Background: Time-resolved FRET reads energy transfer from a long-lived donor to a nearby acceptor.

In assay [2] the target is T2, SARS-CoV-2 main protease (Mpro) (Severe acute respiratory syndrome coronavirus 2, UniProt P0DTD1).
T2 construct: gene rep
Briefly: fluorescence protease assay, fluorogenic peptide, dose response. It counts as biochemical.

Another assay has as its target T3, Mac1 (P43 crystals) (Severe acute respiratory syndrome coronavirus 2, UniProt P0DTD1).
T3 construct: gene rep
The assay can be described thus: X-ray crystallography, crystal soaking, PanDDA. It counts as binding. Conditions: active site; P43 crystals soaked at 10 or 20 mM for 2-[…].

Turning to `CCC(CNc1ncnc2[nH]cnc12)NC(=O)CCC1CCCCC1` (racemic) [Z5551425673], the inhibition at 250 µM in assay [1] (read-out: % inhibition at 250 μM) was 30.1%.

In the case of `COc1ccc2c(C(=O)NNc3nc4ccccc4[nH]3)cc(=O)[nH]c2c1` [ALP-UNI-ed5cdfd2-1], half-maximal inhibition in assay [2] (IC50) was put at 19.4 µM.

With `O=C(NNc1nc2ccccc2[nH]1)c1cc(=O)[nH]c2ccccc12` [WIL-UNI-d4749f31-37], in assay [2] (pH 7.3, 20 mM HEPES, 1.0 mM TCEP, 50 mM NaCl, 5 nM Mpro, 37 nM substrate, 15 min pre-incubation, room temperature, read-out: IC50), the concentration for half-maximal inhibition (IC50) is 25.8 µM.

On to `CCNc1nc2c(cnn2C)c(=O)[nH]1` [Z1102995175], for which, in assay [1] (pH 7.0, 25 mM HEPES, 20 mM NaCl, […] protein, 400 nM peptide, room temperature), the “% inhibition at 250 μM” value is reported as 24.8%.

`CC[C@@H](CNc1ncnc2[nH]cnc12)NC(=O)CCC1CCCCC1` [Z5551425673 (S-stereoisomer)]: the “X-ray crystallography, crystal soaking, PanDDA” value on Mac1 (P43 crystals) is “structure of Z5551425673 (as the S-stereoisomer) bound to the active site”.

In general, inhibition refers to how much of the control response was suppressed. By IC50 is commonly meant the concentration that inhibits the measured activity by half. One may read the % inhibition as the share of the control response that was lost under treatment. High values mean a strong effect, low ones a weak effect.
